Values of other authors as cited in patent US20040053948A1, “Compounds, compositions and methods” (Cytokinetics, Inc., priority 2002, published 2004).

tested on: A549 cells; details: data provided by National Cancer Institute, Developmental Therapeutic Program

Row | Structure (SMILES) | GI50 [nM]
1 | O=c1[nH]cc(F)c(=O)[nH]1 [5-fluorouracil] | 1000
2 | COc1cccc2c1C(=O)c1c(O)c3c(c(O)c1C2=O)C[C@@](O)(C(=O)CO)C[C@@H]3O[C@H]1C[C@H](N)[C@H](O)[C@H](C)O1 [doxorubicin] | 63
3 | NC(=O)NO [hydroxyurea] | 500000
4 | CC(=O)O[C@H]1C(=O)[C@@]2(C)[C@H]([C@H](OC(=O)c3ccccc3)[C@]3(O)C[C@H](OC(=O)[C@H](O)[C@@H](NC(=O)c4ccccc4)c4ccccc4)C(C)=C1C3(C)C)[C@]1(OC(C)=O)CO[C@@H]1C[C@@H]2O [paclitaxel] | 4
